Measurements from patent publication US20260258064A1 (SIRONAX LTD., priority 2023, published 2026).
pIC50: −log10 of the molar value.

molecular target: T1, SARM1 (50-724) (Homo sapiens, UniProt Q6SZW1); experiment: SARM1 (50-724) enzymatic assay (LC-MS/MS); format: biochemical; conditions: Purified SARM1 (50-724) 2 nM, NMN as activator, NAD+ as substrate, 1 h at room temperature, read-out: IC50 (SARM1 inhibitory activity)
T1 construct: Purified SARM1 (50-724) with a final concentration of 2 nM was pre-incubated with a test compound
T1 sequence (Q6SZW1 50-724): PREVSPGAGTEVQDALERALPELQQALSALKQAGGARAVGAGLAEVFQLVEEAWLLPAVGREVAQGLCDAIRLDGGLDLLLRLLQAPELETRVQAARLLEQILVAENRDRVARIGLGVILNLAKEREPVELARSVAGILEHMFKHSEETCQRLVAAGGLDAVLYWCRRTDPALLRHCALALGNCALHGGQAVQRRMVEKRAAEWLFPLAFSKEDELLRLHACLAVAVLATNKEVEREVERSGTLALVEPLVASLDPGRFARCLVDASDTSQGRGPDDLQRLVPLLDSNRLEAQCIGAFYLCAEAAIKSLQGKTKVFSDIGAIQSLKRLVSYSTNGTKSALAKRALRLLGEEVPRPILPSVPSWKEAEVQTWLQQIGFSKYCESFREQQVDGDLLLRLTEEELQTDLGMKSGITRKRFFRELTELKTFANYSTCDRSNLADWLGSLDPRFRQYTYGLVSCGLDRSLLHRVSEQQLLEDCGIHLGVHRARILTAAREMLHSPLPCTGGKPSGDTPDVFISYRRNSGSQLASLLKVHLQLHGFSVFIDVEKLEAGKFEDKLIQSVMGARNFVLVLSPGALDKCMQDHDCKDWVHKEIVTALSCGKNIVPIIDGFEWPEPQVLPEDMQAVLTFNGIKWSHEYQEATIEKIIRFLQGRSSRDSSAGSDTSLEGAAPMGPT
Summary of the method: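 Human SARM1 (50-724), 2 nM, pre-incubated 15 min at room temperature with compound in Dulbecco's PBS. Reaction started with 200 µM NMN (activator) plus […] NAD^+ substrate, run 1 h at room temperature, quenched with 70% acetonitrile. Turnover quantified by LC-MS/MS; IC50 reported.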

| Structure (SMILES) | pIC50 |
| --- | --- |
| CCOC(=O)/C=C/c1cccc2[nH]c(-c3nncn3-c3cnccc3C(F)(F)F)nc12 [Compound 459, ethyl (E)-3-(2-(4-(4-(trifluoromethyl)pyridin-3-yl)-4H-1,2,4-triazol-3-yl)-1H-benzo[d]imidazol-4-yl)acrylate] | 6.00 to 6.30 |
| COC(C)(c1ccc2[nH]c(-c3nncn3-c3ccc(F)c(F)c3Cl)nc2c1)C1COC1 (stereo not drawn) [Compound 150, 2-(4-(2-chloro-3,4-difluorophenyl)-4H-1,2,4-triazol-3-yl)-5-(1-methoxy-1-(oxetan-3-yl)ethyl)-1H-benzo[d]imidazole] | 6.30 to 7.00 |
| O=c1[nH]nc(-c2cccc(Cl)c2Cl)n1-c1nc2cc(C(F)(F)F)ccc2[nH]1 [Compound 30, 3-(2,3-Dichlorophenyl)-4-[5-(trifluoromethyl)-1H-benzimidazol-2-yl]-1H-1,2,4-triazol-5-one] | < 6.00 |
| CC(c1cccnc1)c1cc(F)c2[nH]c(-c3nncn3-c3cnccc3C(F)(F)F)nc2c1 (stereo not drawn) [Compound 444, 7-fluoro-5-(1-(pyridin-3-yl)ethyl)-2-(4-(4-(trifluoromethyl)pyridin-3-yl)-4H-1,2,4-triazol-3-yl)-1H-benzo[d]imidazole] | ≥ 7.00 |
| CON(C)Cc1nnc(-c2nc3cc(C(F)(F)F)ccc3[nH]2)n1-c1cccc(F)c1Cl [Compound 382, N-((4-(2-chloro-3-fluorophenyl)-5-(5-(trifluoromethyl)-1H-benzo[d]imidazol-2-yl)-4H-1,2,4-triazol-3-yl)methyl)-N,O-dimethylhydroxylamine] | ≥ 7.00 |
| CNc1ccc(Cl)c(-n2cnnc2-c2nc3cc(C(F)(F)F)ccc3[nH]2)n1 [Compound 175, 5-Chloro-N-methyl-6-(3-(5-(trifluoromethyl)-1H-benzo[d]imidazol-2-yl)-4H-1,2,4-triazol-4-yl)pyridin-2-amine] | ≥ 7.00 |
| C#Cc1cc(-n2cnnc2-c2nc3cc(C(F)(F)F)ccc3[nH]2)c(OC(F)(F)F)cn1 [Compound 226, 2-(4-(2-ethynyl-5-(trifluoromethoxy)pyridin-4-yl)-4H-1,2,4-triazol-3-yl)-5-(trifluoromethyl)-1H-benzo[d]imidazole] | ≥ 7.00 |
| CC(C)Oc1ccc2[nH]c(-c3nncn3-c3cccc(Cl)c3Cl)nc2c1 [compound 109] | ≥ 7.00 |
| FC(F)(F)Oc1cn2ccnc2cc1-n1cnnc1-c1nc2cc(C(F)(F)F)ccc2[nH]1 [Compound 232, 2-(4-(6-(trifluoromethoxy)imidazo[1,2-a]pyridin-7-yl)-4H-1,2,4-triazol-3-yl)-5-(trifluoromethyl)-1H-benzo[d]imidazole] | ≥ 7.00 |
| N#CC1(c2c(-c3nncn3-c3cnccc3C(F)(F)F)[nH]c3ccc(C(F)(F)F)cc23)CC1 [Compound 425, 1-[5-(trifluoromethyl)-2-[4-[4-(trifluoromethyl)-3-pyridyl]-1,2,4-triazol-3-yl]-1H-indol-3-yl]cyclopropanecarbonitrile] | ≥ 7.00 |
| CC(NC12CC(C1)C2)c1cc(F)c2[nH]c(-c3nncn3-c3cnccc3C(F)(F)F)nc2c1 (stereo not drawn) [Compound 453, N-(1-(7-fluoro-2-(4-(4-(trifluoromethyl)pyridin-3-yl)-4H-1,2,4-triazol-3-yl)-1H-benzo[d]imidazol-5-yl)ethyl)bicyclo[1.1.1]pentan-1-amine] | ≥ 7.00 |
| C=C(F)Cc1cc(F)c2[nH]c(-c3nncn3-c3cnccc3C(F)(F)F)nc2c1 [Compound 316, 7-fluoro-5-(2-fluoroallyl)-2-(4-(4-(trifluoromethyl)pyridin-3-yl)-4H-1,2,4-triazol-3-yl)-1H-benzo[d]imidazole] | ≥ 7.00 |
| Fc1c(C2CC2)cc(F)c2[nH]c(-c3nncn3-c3cnccc3C(F)(F)F)nc12 [Compound 300, 5-cyclopropyl-4,7-difluoro-2-(4-(4-(trifluoromethyl)pyridin-3-yl)-4H-1,2,4-triazol-3-yl)-1H-benzo[d]imidazole] | ≥ 7.00 |
| Nc1nnc(-c2nc3cc(C(F)(F)F)cc(F)c3[nH]2)n1-c1cnccc1C(F)(F)F [Compound 456, 5-(7-fluoro-5-(trifluoromethyl)-1H-benzo[d]imidazol-2-yl)-4-(4-(trifluoromethyl)pyridin-3-yl)-4H-1,2,4-triazol-3-amine] | ≥ 7.00 |
| OC1(c2ccc3[nH]c(-c4nncn4-c4ccc(F)c(F)c4Cl)nc3c2)CC1 [Example 134] | ≥ 7.00 |
| CC(c1cc(F)c2[nH]c(-c3nncn3-c3cnccc3C(F)(F)F)nc2c1)c1nccs1 (racemic) [Compound 412, 2-(1-(7-fluoro-2-(4-(4-(trifluoromethyl)pyridin-3-yl)-4H-1,2,4-triazol-3-yl)-1H-benzo[d]imidazol-5-yl)ethyl)thiazole] | ≥ 7.00 |
| N#CC1(c2ccc3[nH]c(-c4nncn4-c4ccc(F)c(F)c4Cl)nc3c2)CC1 [Example 135] | ≥ 7.00 |

| Structure (SMILES) | pIC50 |
| --- | --- |
| CC(CO)c1ccc2[nH]c(-c3nncn3-c3cccc(Cl)c3Cl)nc2c1 (stereo not drawn) [Example 104, 2-(2-(4-(2,3-dichlorophenyl)-4H-1,2,4-triazol-3-yl)-1H-benzo[d]imidazol-5-yl)propan-1-ol] | ≥ 7.00 |
| FC(F)(F)c1ccc2[nH]c(-c3nncn3-c3cnccc3C(F)(F)F)c(-c3ccnnc3)c2c1 [Compound 427, 3-pyridazin-4-yl-5-(trifluoromethyl)-2-[4-[4-(trifluoromethyl)-3-pyridyl]-1,2,4-triazol-3-yl]-1H-indole] | ≥ 7.00 |
| Fc1cc(OCC(F)F)cc2nc(-c3nncn3-c3cnccc3C(F)(F)F)[nH]c12 [Compound 331, 5-(2,2-difluoroethoxy)-7-fluoro-2-(4-(4-(trifluoromethyl)pyridin-3-yl)-4H-1,2,4-triazol-3-yl)-1H-benzo[d]imidazole] | ≥ 7.00 |
| CC(C)(C#N)c1ccc2[nH]c(-c3nncn3-c3cccc(Cl)c3Cl)nc2c1 [Example 112] | ≥ 7.00 |
| Cc1nsc(Cl)c1-n1cnnc1-c1nc2cc(C(F)(F)F)ccc2[nH]1 [Example 118] | ≥ 7.00 |
| OCC1(c2cc(F)c3[nH]c(-c4nncn4-c4cnccc4C(F)(F)F)nc3c2)CC1 [Compound 441, (1-(7-fluoro-2-(4-(4-(trifluoromethyl)pyridin-3-yl)-4H-1,2,4-triazol-3-yl)-1H-benzo[d]imidazol-5-yl)cyclopropyl)methanol] | ≥ 7.00 |
| CC(c1ccncc1)c1cc(F)c2[nH]c(-c3nncn3-c3cnccc3C(F)(F)F)nc2c1 (stereo not drawn) [Compound 445, 7-fluoro-5-(1-(pyridin-4-yl)ethyl)-2-(4-(4-(trifluoromethyl)pyridin-3-yl)-4H-1,2,4-triazol-3-yl)-1H-benzo[d]imidazole] | ≥ 7.00 |
| FC(F)(F)c1ccc2[nH]c(-c3nncn3-c3cccn4ccnc34)nc2c1 [Example 70] | < 6.00 |
| Cc1ccc2[nH]c(-c3cncn3C3CCCC3)nc2c1 [Compound 3, 2-(1-cyclopentyl-1H-imidazol-5-yl)-6-methyl-1H-benzo[d]Imi-dazole] | < 6.00 |
| O=S1(=O)CCN(c2ccc(Cl)c(-n3cnnc3-c3nc4cc(C(F)(F)F)ccc4[nH]3)n2)CC1 [Compound 201, 4-(5-chloro-6-(3-(5-(trifluoromethyl)-1H-benzo[d]imidazol-2-yl)-4H-1,2,4-triazol-4-yl)pyridin-2-yl)thiomorpholine 1,1-dioxide] | ≥ 7.00 |
| FC(F)(F)c1ccc2[nH]c(-c3nncn3-c3cnccc3C(F)(F)F)c(-c3ccco3)c2c1 [Compound 376, 3-(2-furyl)-5-(trifluoromethyl)-2-[4-[4-(trifluoromethyl)-3-pyridyl]-1,2,4-triazol-3-yl]-1H-indole] | ≥ 7.00 |
| Cc1ccc2[nH]c(-c3cc(CO)cn3C3CCCC3)nc2c1 [Compound 16, (1-Cyclopentyl-5-(5-methyl-1H-benzo[d]imidazol-2-yl)-1H-pyrrol-3-yl)methanol] | 6.00 to 6.30 |
| FC(F)(F)c1ccc2[nH]c(-c3nnc(OC4COC4)n3-c3cccc(Cl)c3Cl)nc2c1 [Example 117, 2-(4-(2,3-dichlorophenyl)-5-(oxetan-3-yloxy)-4H-1,2,4-triazol-3-yl)-5-(trifluoromethyl)-1H-benzo[d]imidazole] | 6.30 to 7.00 |
| Fc1cccc(-n2c(Cn3cccn3)nnc2-c2nc3cc(C(F)(F)F)ccc3[nH]2)c1Cl [Compound 381, 2-(5-((1H-pyrazol-1-yl)methyl)-4-(2-chloro-3-fluorophenyl)-4H-1,2,4-triazol-3-yl)-5-(trifluoromethyl)-1H-benzo[d]imidazole] | 6.30 to 7.00 |
| FC(F)(F)c1ccc2[nH]c(-c3cnsc3-c3cccc(Cl)c3Cl)nc2c1 [Example 92] | 6.30 to 7.00 |
| O=C(O)c1cc(-n2cnnc2-c2nc3cc(C(F)(F)F)ccc3[nH]2)c(OC(F)(F)F)cn1 [Compound 266, 5-(trifluoromethoxy)-4-(3-(5-(trifluoromethyl)-1H-benzo[d]imidazol-2-yl)-4H-1,2,4-triazol-4-yl)picolinic acid] | ≥ 7.00 |
